According to patent US9163032B2, “Esters of DCPLA and methods of treatment using the same” (Blanchette Rockefeller Neurosciences Institute, priority 2011, dated 2015):
pEC50: −log10 of the molar value. Read-outs that look alike come from different tables or passages of the source.

What was measured:
PKC-α = PKC-α (Homo sapiens, UniProt P17252); test: PKC activation assay with purified PKC-α isozyme; type: biochemical
Method: (§1) For measurement of PKC activation by DCPLA-ME, activation of recombinant PKC-α, PKC-ε, and PKC-δ was evaluated. DCPLA-ME induced activation was measured in the absence of diacylglycerol (DAG) and phosphatidylserine (PS) as described earlier. See Nelson, T. J. et al., J. Biol. Chem., 2009, 284: 34514-34521, and Kanno, T. et al., J. Cell Physiol., 2009, 221: 183-188. Individual enzymes were incubated for 15 min at 37° C. in the presence of 10 μM histones, 4.89 mM CaCl2, 10 mM MgCl2, 20 mM HEPES (pH 7.4), 0.8 mM EDTA, 4 mM EGTA, 4% glycerol, 8 μg/ml aprotinin, 8 μg/ml leupeptin, 2 mM benzamidine, and 0.5 μCi of [γ-^32P]ATP. Purified PKC-α, PKC-ε and PKC-δ were preincubated with DCPLA-ME for 5 min at room temperature. [^32P]-Phosphoprotein formation was measured by adsorption onto phosphocellulose.
To measure PKC, 10 μl of cell homogenate or purified PKC isozyme was incubated for 15 min at 37° C. in the presence of 10 μM histones, 4.89 mM CaCl2, 1.2 μg/μl phosphatidyl-L-serine, 0.18 μg/μl 1,2-dioctanoyl-sn-glycerol, 10 mM MgCl2, 20 mM HEPES (pH 7.4), 0.8 mM EDTA, 4 mM EGTA, 4% glycerol, 8 μg/ml aprotinin, 8 μg/ml leupeptin, and 2 mM benzamidine. [γ32P]ATP (0.5 μCi) was added and 32P-phosphoprotein formation was measured by adsorption onto phosphocellulose as described previously. […]
PKC activity of each compound was measured in the absence of diacylglycerol and phosphatidyl-L-serine and PKC-δ and PKC-ε were measured in the absence of added EGTA and CaCl2, as described by Kanno et al., J. Lipid Res., 2006, 47: 1146-1156. […] To determine their PKC isozyme specificity, the compounds were pre-incubated with purified isoforms of PKC for five minutes and the PKC activity was measured radiometrically.
(§2) The activation and PKC isozyme specificity of DCPLA-ethyl ester was measured following the procedures in Example 1(B) and (C), except that 9 ng of the purified isozyme was used and it was pre-incubated for 5 minutes at room temperature (FIG. 3). PKC-ε activation by DCPLA-tert-butyl ester and DCPLA-retinyl ester was measured in the same manner as DCPLA-ethyl ester (FIG. 3).

PKC-ε [1] = target: T1, PKC-ε (Homo sapiens, UniProt Q02156); test: PKC activation assay with purified PKC-ε isozyme (32P-phosphoprotein formation); type: biochemical; details: for Emax: % of control of PKCε at maximum; for Specificity ε/α: Activation of PKC-ε ÷ activation or inhibition of PKCα at 3xEC50; for concentration of maximal activation: FIG. 2, FIG. 4; for pEC50: lowest concentration that activates by 50% of maximum activation; for PKC-ε activation at its peak: maximum, FIG. 1, 2, 4
T1 sequence (Q02156 1-737): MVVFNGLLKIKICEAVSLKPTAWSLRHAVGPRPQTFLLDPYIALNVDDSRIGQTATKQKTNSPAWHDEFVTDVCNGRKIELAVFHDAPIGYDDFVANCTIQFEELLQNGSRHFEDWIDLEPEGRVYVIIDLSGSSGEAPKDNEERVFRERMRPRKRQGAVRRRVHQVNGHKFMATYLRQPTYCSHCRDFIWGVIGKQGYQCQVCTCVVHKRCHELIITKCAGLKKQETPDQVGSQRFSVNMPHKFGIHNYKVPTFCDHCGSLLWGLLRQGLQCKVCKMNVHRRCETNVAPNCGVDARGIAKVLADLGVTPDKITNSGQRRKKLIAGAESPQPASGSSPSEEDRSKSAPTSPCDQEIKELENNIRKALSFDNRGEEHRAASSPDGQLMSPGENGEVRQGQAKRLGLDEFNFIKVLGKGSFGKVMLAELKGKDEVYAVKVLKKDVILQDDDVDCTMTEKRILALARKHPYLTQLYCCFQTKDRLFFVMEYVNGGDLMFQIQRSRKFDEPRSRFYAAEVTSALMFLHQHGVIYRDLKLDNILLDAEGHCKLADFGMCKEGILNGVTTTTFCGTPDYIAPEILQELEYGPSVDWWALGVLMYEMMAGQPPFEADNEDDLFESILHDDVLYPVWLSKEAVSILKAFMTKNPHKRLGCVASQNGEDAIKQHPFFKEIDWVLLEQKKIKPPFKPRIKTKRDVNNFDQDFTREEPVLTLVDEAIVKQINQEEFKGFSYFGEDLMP
Method: as §1
To measure PKC, 10 μl of cell homogenate or purified PKC isozyme was incubated for 15 min at 37° C. in the presence of 10 μM histones, 4.89 mM CaCl2, 1.2 μg/μl phosphatidyl-L-serine, 0.18 μg/μl 1,2-dioctanoyl-sn-glycerol, 10 mM MgCl2, 20 mM HEPES (pH 7.4), 0.8 mM EDTA, 4 mM EGTA, 4% glycerol, 8 μg/ml aprotinin, 8 μg/ml leupeptin, and 2 mM benzamidine. [γ32P]ATP (0.5 μCi) was added and 32P-phosphoprotein formation was measured by adsorption onto phosphocellulose as described previously. See Nelson et al., J. Neurochemistry, 1995, 65: 2350-2357.
PKC activity of each compound was measured in the absence of diacylglycerol and phosphatidyl-L-serine and PKC-δ and PKC-ε were measured in the absence of added EGTA and CaCl2, as described by Kanno et al., J. Lipid Res., 2006, 47: 1146-1156. Low concentrations of Ca^2+ are needed because high Ca^2+ interacts with the PKC phosphatidylserine binding site and prevents activation. […] To determine their PKC isozyme specificity, the compounds were pre-incubated with purified isoforms of PKC for five minutes and the PKC activity was measured radiometrically.
as §2
The EC50 values, PKC specificity, and activation for a select number of DCPLA esters was determined (see Table 1). EC50 values were determined by measuring the lowest concentration that activates by 50% of maximum activation. […] The specificity and activation of PKC by the various esters of DCPLA were determined from the measurements of activation of PKC isozymes.

PKC-δ = PKC-δ (Homo sapiens, UniProt Q05655); test: PKC activation assay with purified PKC-δ isozyme; type: biochemical
Sequence of PKC-δ (Q05655 whole entry): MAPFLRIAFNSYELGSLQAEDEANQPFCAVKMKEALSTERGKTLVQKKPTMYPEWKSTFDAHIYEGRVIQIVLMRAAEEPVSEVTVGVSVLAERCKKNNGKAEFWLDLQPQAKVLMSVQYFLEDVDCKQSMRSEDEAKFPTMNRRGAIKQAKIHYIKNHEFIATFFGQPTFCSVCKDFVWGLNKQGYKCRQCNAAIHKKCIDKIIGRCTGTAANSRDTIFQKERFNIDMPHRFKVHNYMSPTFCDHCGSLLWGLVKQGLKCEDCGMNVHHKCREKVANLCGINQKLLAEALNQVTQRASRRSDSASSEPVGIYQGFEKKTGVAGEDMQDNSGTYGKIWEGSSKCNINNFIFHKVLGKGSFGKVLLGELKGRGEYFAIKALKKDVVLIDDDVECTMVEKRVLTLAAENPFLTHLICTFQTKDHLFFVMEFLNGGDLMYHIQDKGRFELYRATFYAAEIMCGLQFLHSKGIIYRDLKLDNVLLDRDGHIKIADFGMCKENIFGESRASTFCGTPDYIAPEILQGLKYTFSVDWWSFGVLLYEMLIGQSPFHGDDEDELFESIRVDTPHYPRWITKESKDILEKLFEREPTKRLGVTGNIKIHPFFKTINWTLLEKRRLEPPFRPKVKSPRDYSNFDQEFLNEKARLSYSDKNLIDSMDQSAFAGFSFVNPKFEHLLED
Method: as §1
To measure PKC, 10 μl of cell homogenate or purified PKC isozyme was incubated for 15 min at 37° C. in the presence of 10 μM histones, 4.89 mM CaCl2, 1.2 μg/μl phosphatidyl-L-serine, 0.18 μg/μl 1,2-dioctanoyl-sn-glycerol, 10 mM MgCl2, 20 mM HEPES (pH 7.4), 0.8 mM EDTA, 4 mM EGTA, 4% glycerol, 8 μg/ml aprotinin, 8 μg/ml leupeptin, and 2 mM benzamidine. [γ32P]ATP (0.5 μCi) was added and 32P-phosphoprotein formation was measured by adsorption onto phosphocellulose as described previously. See Nelson et al., J. Neurochemistry, 1995, 65: 2350-2357. […]

PKC-ε [2] = test: PKC-ε level in primary neurons (immunofluorescence, Western Blot); type: cell-based, rat; details: 5 μM inhibitor, ASPD + DCPLA-ME
Method: Cells were grown in two chambered slides (Nunc, USA) at low density. For immunofluorescence staining, the cells were washed with PBS (pH 7.4) and fixed with 4% paraformaldehyde for 4 min. Following fixation, the cells were blocked and permeabilized with 5% serum and 0.3% Triton X-100 in 1×PBS for 30 min. Cells were washed three times with 1×PBS and incubated with primary antibodies for 1 hr at 1:100 dilution. After the incubation, the slides were again washed three times in 1×PBS and were incubated with the FITC anti-mouse IgG and Rhodamine anti-rabbit IgG for 1 hr at 1:400 dilution. The cells were further washed and stained with DAPI (4′,6-diamidino-2′-phenylindole, dihydrochloride) (Thermo Scientific, USA) to stain the nucleus. Finally, the slides were washed and mounted in Pro Long Gold antifade mounting solution (Invitrogen, USA) and were viewed under a LSM 710 Meta confocal microscope (Zeiss) at 350 nm, 490 nm, and 540 nm excitation and 470 nm, 525 nm, and 625 nm emission for DAPI, FITC, and Rhodamine respectively. Six individual fields at 63× oil lens magnification were analyzed for the mean fluorescence intensity (MFI) in each channel.
Cells were harvested in homogenizing buffer containing 10 mM Tris-Cl (pH 7.4), 1 mM PMSF (phenylmethylsulfonyl fluoride), 1 mM EGTA, 1 mM EDTA, 50 mM NaF, and 20 μM leupeptin, and were lysed by sonication. The homogenate was centrifuged at 100,000×g for 15 min at 4° C. to obtain the cytosolic fraction (supernatant) and membrane (pellet). The pellet was resuspended in the homogenizing buffer by sonication. […] Protein concentration was measured using the Coomassie Plus (Bradford) Protein Assay kit (Pierce, USA). Following quantification, 20 μg of protein from each sample was subjected to SDS-PAGE analysis in a 4-20% gradient Tris-Glycine gel (Invitrogen, USA). […] The blot was imaged in an ImageQuant RT-ECL (GE Life Sciences, Piscataway, N.J.) and densitometric quantification was performed using IMAL software (Blanchette Rockefeller Neurosciences Institute, Morgantown, W. Va.). […]

[3] = system: cultured primary rat hippocampal neurons; test: Neuroprotection against ASPD induced toxicity, MTT assay, primary neurons; type: cell-based; details: added to the cells with DCPLA-ME, 50 nM ASPD
Method: Viability of cells was measured by MTT assay. MTT (i.e., 3-(4,5-dimethylthiazol-2-yl)-2,5-diphenyltetrazolium bromide) is a tetrazolium salt that is cleaved to formazan by the succinate dehydrogenase, which is only active in viable cells. After solubilization of the formazan, the amount of dye can be quantified with a microplate reader at 570 nm along with a reference of 630 nm. For the MTT assay, 5×10^4 primary rat hippocampal neurons from 18-day-old embryonic Sprague-Dawley rat brains or SH-SY5Y cells were plated on each well of 24-well plates coated with poly-D-lysine. After treatment, the cells were washed with 1× PBS and were incubated with 200 μl of 1 mg/ml MTT solution (Sigma, USA) at 37° C. for 2 hr. Then the MTT-solution was removed and the cells were lysed with 200 μl isopropanol containing 0.04 M HCl and […] for 10 min. Finally, the reading was taken at 570 nm and 630 nm. All the samples were done in triplicate and the data were represented as the percentage of control.
Bryostatin 1, DCPLA, and DCPLA-ME were tested against ASPD-induced cytotoxicity to determine their neuroprotective efficacy.

Row | Compound | Emax (PKC-ε [1]) [%] | Specificity ε/α (PKC-ε [1]) | concentration of maximal activation (PKC-ε [1]) [nM] | pEC50 (PKC-ε [1]) | PKC-ε activation at its peak (PKC-ε [1]) | further results
1 | CCCCC/C=C\C/C=C\CCCCCCCC(=O)O[C@H]1CC[C@@]2(C)C(=CC[C@H]3[C@@H]4CC[C@H]([C@H](C)CCCC(C)C)[C@@]4(C)CC[C@@H]32)C1 [Cholesteryl linoleate, cholesteryl linoleate, reference compound] | – | – | – | – | – | PKC-α activation (PKC-α; FIG. 4): 20%; PKC-ε activation (PKC-ε [1]; FIG. 4): little or no activation
2 | CCCCCC1CC1CC1CC1CCCCCCCC(=O)OC1CC[C@@]2(C)C(=CC[C@H]3[C@H]4CC[C@H]([C@H](C)CCCC(C)C)[C@@]4(C)CC[C@H]32)C1 (some centres unmarked) [DCPLA-cholesteryl ester, DCPLA cholesteryl ester] | 122 | 0.94 | 0.01 | 11.30 | up to 130 % of control | effect on PKC-α (PKC-α): inhibited at all concentrations; affinity for PKC-ε and PKC-δ (PKC-ε [1]): extremely high affinity; form of activity vs. concentration response (PKC-ε [1]): biphasic manner; potency relative to Bryostatin 1 (PKC-ε [1]; from concentration of maximal activity): 18 ×; form of activity vs. concentration response (PKC-ε [1]; listed as cholesteryl ester): bimodal activation
3 | CCCCCC1CC1CC1CC1CCCCCCCC(=O)OC(C)C (centres unmarked) [DCPLA-isopropyl ester] | 140 | 1.4 | 10 | 10.00 | up to 40 % of control | effect on PKC-δ (PKC-δ): only slightly activated
4 | EAVSLKPT | – | – | – | – | – | effect on DCPLA-ME protection of PKC-ε protein level (PKC-ε [2]): completely blocked; effect on DCPLA-ME neuroprotection [3]: blocked DCPLA-ME's protective effect
